Earlier results, collected in US8679103B2, “Two step mammalian biofilm treatment processes and systems” (priority 2008, dated 2014).
In brackets after ≈: the same amount, converted by molar mass.

Tested on: S. aureus Xen 31
Conditions: stated as established

**Q.** Which minimum inhibitory concentration does the source give for `O=C(O)c1cn(C2CC2)c2cc(N3CCNCC3)c(F)cc2c1=O` [ciprofloxacin] here?
**A.** Its minimum inhibitory concentration is 3 mg/L (≈ 9.05 µM).
